Measurements published in patent US9758492B2, “IDO inhibitors” (Bristol-Myers Squibb Company, priority 2013, dated 2017).

Target: IDO (Homo sapiens, UniProt P14902)
Test: LLE_IDO_ABS_DR (IDO assay)

IDO, sequence (P14902 whole entry): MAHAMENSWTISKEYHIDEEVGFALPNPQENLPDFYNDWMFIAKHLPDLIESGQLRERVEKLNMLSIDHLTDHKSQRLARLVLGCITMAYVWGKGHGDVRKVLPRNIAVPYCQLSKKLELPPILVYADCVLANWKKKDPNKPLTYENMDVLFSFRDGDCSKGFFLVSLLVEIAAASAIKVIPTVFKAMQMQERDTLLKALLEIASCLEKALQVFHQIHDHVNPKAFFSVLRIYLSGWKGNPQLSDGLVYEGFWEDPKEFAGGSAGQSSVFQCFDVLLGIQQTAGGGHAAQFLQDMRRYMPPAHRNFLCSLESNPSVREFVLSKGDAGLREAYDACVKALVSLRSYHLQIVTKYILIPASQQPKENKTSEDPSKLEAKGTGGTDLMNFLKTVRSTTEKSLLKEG

| SMILES | IC50 [nM] |
| --- | --- |
| CCN(CCOC)c1ccc(-c2ccccc2C(=O)O)cc1NC(=O)Nc1ccc(C)cc1 [Example 72, 4′-(ethyl(2-methoxyethyl)amino)-3′-(3-p-tolylureido)biphenyl-2-carboxylic acid] | 850 |
| CC(C)CN(CCC(C)C(F)(F)F)c1ccc(-c2ccccc2-c2nnn[nH]2)cc1NC(=O)Nc1ccccc1F (stereo not shown) [Example 201, 1-(2-fluorophenyl)-3-(4-(isobutyl(4,4,4-trifluoro-3-methylbutyl)amino)-2′-(1H-tetrazol-5-yl)-[1,1′-biphenyl]-3-yl)urea] | 4.46 |
| Cc1ccc(NC(=O)Nc2cc(-c3ccccc3-c3nnn[nH]3)ccc2N(CCC(F)(F)F)Cc2ccccc2)cc1 [Example 10, 1-(4-(Benzyl(3,3,3-trifluoropropyl)amino)-2′-(1H-tetrazol-5-yl)-[1,1′-biphenyl]-3-yl)-3-(p-tolyl)urea] | 100 |
| CCC1CCCCN1c1ccc(-c2ccccc2-c2nnn[nH]2)cc1NC(=O)Nc1ccc(C)cc1 (stereo not shown) [Example 114, 1-(4-(2-ethylpiperidin-1-yl)-2′-(1H-tetrazol-5-yl)biphenyl-3-yl)-3-p-tolylurea] | 160 |
| CCN(CC(C)(C)C)c1ccc(-c2ccccc2C(=O)O)cc1NC(=O)Nc1ccc(C)cc1 [Example 111, 4′-(ethyl(neopentyl)amino)-3′-(3-p-tolylureido)biphenyl-2-carboxylic acid] | 210 |
| Cc1ccc(NC(=O)Nc2cc(-c3cc(F)ccc3C(=O)O)ccc2N(CC(C)C)C2CCC2)cc1 [Example 182, 4′-(cyclobutyl(isobutyl)amino)-5-fluoro-3′-(3-(p-tolyl)ureido)-[1,1′-biphenyl]-2-carboxylic acid] | 50 |
| Cc1ccc(NC(=O)Nc2cc(-c3ccccc3C(=O)O)ccc2N(Cc2ccccc2)CC(F)F)cc1 [Example 20, 4′-(Benzyl(2,2-difluoroethyl)amino)-3′-(3-(p-tolyl)ureido)-[1,1′-biphenyl]-2-carboxylic acid] | 130 |
| CCCN(Cc1ccccc1)c1ccc(-c2ccccc2C(=O)O)cc1NC(=O)Nc1ccc(C)cc1 [Example 187, 4′-(benzyl(propyl)amino)-3′-(3-(p-tolyl)ureido)-[1,1′-biphenyl]-2-carboxylic acid] | 20 |
| Cc1ccc(NC(=O)Nc2cc(C3=C(c4nnn[nH]4)CCC3)ccc2N(CC(C)C)CC(C)C)cc1 [Example 164, 1-(5-(2-(1H-tetrazol-5-yl)cyclopent-1-enyl)-2-(diisobutylamino)phenyl)-3-p-tolylurea] | 5.4 |
| Cc1ccc(NC(=O)Nc2cc(-c3ccccc3C(=O)O)ccc2N(CCC(F)(F)F)Cc2cccc(Cl)c2)cc1 [Example 11, 4′-((3-Chlorobenzyl)(3,3,3-trifluoropropyl)amino)-3′-(3-(p-tolyl)ureido)-[1,1′-biphenyl]-2-carboxylic acid] | 250 |
| CCN(c1ccc(-c2ccccc2C(=O)O)cc1NC(=O)Nc1ccc(C)cc1)C1CCCC1 [Example 76, 4′-(cyclopentyl(ethyl)amino)-3′-(3-p-tolylureido)biphenyl-2-carboxylic acid] | 20 |
| Cc1ccc(NC(=O)Nc2cc(-c3ccccc3C(=O)O)ccc2N(CC2CC2)C2CCCCC2)cc1 [Example 83, 4′-(cyclohexyl (cyclopropylmethyl)amino)-3′-(3-p-tolylureido)biphenyl-2-carboxylic acid] | 20 |

Results, then the compound that gave them:

| IC50 [nM] | SMILES |
| --- | --- |
| 1220 | CC(C)CN(CC(C)C)c1ccc(-c2ccccc2-c2nnn[nH]2)cc1NC(=O)NC(C)C [Example 246, 1-(4-(diisobutylamino)-2′-(1H-tetrazol-5-yl)-[1,1′-biphenyl]-3-yl)-3-isopropylurea] |
| 80 | O=C(Nc1ccc(C2CC2)cc1)Nc1cc(-c2ccccc2-c2nnn[nH]2)ccc1N(CCc1ccccc1)CCC(F)(F)F [Example 298, 1-(4-cyclopropylphenyl)-3-(4-(phenethyl(3,3,3-trifluoropropyl)amino)-2′-(1H-tetrazol-5-yl)-[1,1′-biphenyl]-3-yl)urea] |
| 750 | CC(C)CN(CC(C)C)c1ccc(-c2ccccc2-c2nnn[nH]2)cc1NC(=O)Nc1ccccn1 [Example 238, 1-(4-(Diisobutylamino)-2′-(1H-tetrazol-5-yl)-[1,1′-biphenyl]-3-yl)-3-(pyridin-2-yl)urea] |
| 610 | O=C(Nc1cc(-c2ccccc2-c2nnn[nH]2)ccc1N(CCCC(F)(F)F)Cc1ccc(Cl)cc1)Nc1ccccc1C(F)(F)F [Example 321, 1-(4-((4-chlorobenzyl)(4,4,4-trifluorobutyl)amino)-2′-(1H-tetrazol-5-yl)-[1,1′-biphenyl]-3-yl)-3-(2-(trifluoromethyl)phenyl)urea] |
| 3860 | CC(C)CN(CC(C)C)c1ccc(-c2ccccc2-c2nnn[nH]2)cc1NC(=O)Nc1ncccn1 [Example 239, 1-(4-(Diisobutylamino)-2′-(1H-tetrazol-5-yl)-[1,1′-biphenyl]-3-yl)-3-(pyrimidin-2-yl)urea] |
| 490 | O=C(Nc1cc(-c2ccccc2-c2nnn[nH]2)ccc1N(CCC(F)(F)F)Cc1ccc(F)cc1C(F)(F)F)Nc1ccccc1C(F)(F)F [Example 338, 1-(4-((4-fluoro-2-(trifluoromethyl)benzyl)(3,3,3-trifluoropropyl)amino)-2′-(1H-tetrazol-5-yl)-[1,1′-biphenyl]-3-yl)-3-(2-(trifluoromethyl)phenyl)urea] |
| 340 | O=C(Nc1ccc(F)cc1F)Nc1cc(-c2ccccc2-c2nnn[nH]2)ccc1N(CCC(F)(F)F)Cc1ccc(Cl)cc1Cl [Example 336, 1-(4-((2,4-dichlorobenzyl)(3,3,3-trifluoropropyl)amino)-2′-(1H-tetrazol-5-yl)-[1,1′-biphenyl]-3-yl)-3-(2,4-difluorophenyl) urea] |
| 50 | Cc1ccc(NC(=O)Nc2cc(-c3ccccc3-c3nnn[nH]3)ccc2Nc2ccccc2C(C)(C)C)cc1 [Example 208, 1-(4-((2-(tert-butyl)phenyl)amino)-2′-(1H-tetrazol-5-yl)-[1,1′-biphenyl]-3-yl)-3-(p-tolyl)urea] |
| 30 | CC(C)CN(CC(C)C)c1ccc(-c2ccccc2-c2nnn[nH]2)cc1NC(=O)Nc1ccc(-c2cnco2)cc1 [Example 255, 1-(4-(diisobutylamino)-2′-(1H-tetrazol-5-yl)-[1,1′-biphenyl]-3-yl)-3-(4-(oxazol-5-yl)phenyl)urea] |
| 1210 | Cc1ccc(NC(=O)Nc2cc(-c3ccccc3-c3nnn[nH]3)ccc2N(Cc2ccccc2)CC(C)C)cc1 [Example 289, 1-(4-(Benzyl(isobutyl)amino)-2′-(1H-tetrazol-5-yl)-[1,1′-biphenyl]-3-yl)-3-(p-tolyl)urea] |
| 2.61 | Cc1ccc(NC(=O)Nc2cc(-c3ccccc3-c3nnn[nH]3)ccc2N(CC(C)C)CC(C)C)c(F)c1 [Example 264, 1-(4-(diisobutylamino)-2′-(1H-tetrazol-5-yl)-[1,1′-biphenyl]-3-yl)-3-(2-fluoro-4-methylphenyl)urea] |
| 180 | CC(C)CNC(=O)Nc1cc(-c2ccccc2-c2nnn[nH]2)ccc1N(CC(C)C)CC(C)C [Example 245, 1-(4-(diisobutylamino)-2′-(1H-tetrazol-5-yl)-[1,1′-biphenyl]-3-yl)-3-isobutylurea] |
| 90 | CC(C)CN(CC(C)C)c1ccc(-c2ccccc2-c2nnn[nH]2)cc1NC(=O)Nc1ccc(F)c(Br)c1 [Example 258, 1-(3-bromo-4-fluorophenyl)-3-(4-(diisobutylamino)-2′-(1H-tetrazol-5-yl)-[1,1′-biphenyl]-3-yl)urea] |
